The data set in a line: solvent given as SMILES.

Turning to `Cc1ccc([C@@H]2C[C@](O)(c3ccccn3)C[C@](O)(c3ccccn3)[C@H]2C(=O)c2ccc(N(c3ccccc3)c3ccccc3)cc2)cc1`, the absorption maximum is recorded as 366 nm (in C1CCOC1); 364 nm (in CC#N); 366 nm (in CCO); 366 nm (in CCOC(C)=O); 360 nm (in CN(C)C=O); 372 nm (in ClCCl). For the setting “in c1ccccc1”, this compound gave an absorption maximum of 370 nm.

The compound `CCOC(=O)c1cc(C(=O)OCC)c2cccc(O)c2n1` registered an absorption maximum (in CCO) of 369 nm.

For the compound `Cc1cc(O)c(C(=O)/C=C/c2ccc([N+](=O)[O-])cc2)c(=O)o1`, the absorption maximum (in CC#N) is listed as 358 nm and the absorption maximum (in ClCCl) is listed as 361 nm.

For `CCCCCCN(c1ccccc1)c1ccc(/C=C/c2cc(=O)oc3cc(C)ccc23)cc1`, the absorption maximum reads like this: (in CS(C)=O) 432 nm; (in ClC(Cl)Cl) 424 nm.

`CC(C)(C)c1ccc(-c2sc3c(-c4ccc(C(C)(C)C)cc4)c4n(c3c2-c2ccc(C(C)(C)C)cc2)[B-](F)(F)[N+]2=Cc3c(-c5ccc(C(C)(C)C)cc5)c5sc(-c6ccc(C(C)(C)C)cc6)c(-c6ccc(C(C)(C)C)cc6)c5n3[B-](F)(F)[N+]2=C4)cc1` gave an absorption maximum (in CC#N) of 574 nm; an absorption maximum (in CCCCCC) of 591 nm; an absorption maximum (in CN(C)C=O) of 584 nm; an absorption maximum (in Cc1ccccc1) of 596 nm; an absorption maximum (in ClCCl) of 591 nm.

As to `C(=C\c1nc(/C=C/c2ccccc2)nc(/C=C/c2ccccc2)n1)/c1ccccc1`, the absorption maximum (in ClCCl) came to 327 nm.

Regarding `c1ccc(Nc2nc(Nc3ccccc3)nc(Nc3ccc4c5cccc6cccc(c7cccc3c74)c65)n2)cc1`, the absorption maximum is, setting by setting: (in C1COCCO1) 444 nm; (in CC#N) 444 nm; (in CCCCOCCCC) 444 nm; (in CCOC(C)=O) 443 nm.

For the setting “in ClCCl”, `CCCCn1c2ccc(C#N)cc2c2cc(C#N)ccc21` had an absorption maximum of 349 nm.

As to `CCCCN(CCCC)c1ccc(C#Cc2cc(C#Cc3cc(C(F)(F)F)cc(C(F)(F)F)c3)c(C#Cc3cc(C(F)(F)F)cc(C(F)(F)F)c3)cc2C#Cc2ccc(N(CCCC)CCCC)cc2)cc1`, the absorption maximum (in ClCCl) is 410 nm.

`CC(C)(C)NC(=O)c1ccc(-c2cc3ccccc3s2)c2ccc3c4ccccc4c4ccccc4c3c12` yielded an absorption maximum (in ClCCl) of 350 nm.

Under “in ClCCl”, `N#Cc1ccc(N(c2ccccc2)c2ccc3ccc4c(N(c5ccccc5)c5ccc(C#N)cc5)ccc5ccc2c3c54)cc1` registered an absorption maximum of 407 nm.

On to `C(#Cc1ccc2ccc3cccc4ccc1c2c34)c1ccccc1`, for which, under “in Cc1ccccc1”, the absorption maximum was determined as 362 nm.

Turning to `CCCCCCN(CCCCCC)c1ccc(C#Cc2ccc(/C=C/c3ccc(-c4ccc(/C=C/c5ccc(C#Cc6ccc(N(CCCCCC)CCCCCC)cc6)cc5)cc4)cc3)cc2)cc1`, the absorption maximum (in Cc1ccccc1) stood at 400 nm.

Under “in Cc1ccccc1”, `c1ccc(-c2nc(-c3ccc(N4c5ccccc5C(c5ccccc5)(c5ccccc5)c5ccccc54)cc3)cc(-c3ccc(N4c5ccccc5C(c5ccccc5)(c5ccccc5)c5ccccc54)cc3)n2)cc1` had an absorption maximum of 373 nm.

`N#Cc1cc(-n2c3ccccc3c3ccccc32)c(-n2c3ccccc3c3cc(Br)ccc32)cc1C#N` had an absorption maximum (in C1CCOC1) of 366 nm.

Turning to `Clc1ccccc1N1c2sc3ccccc3c2Sc2c1sc1ccccc21`, the absorption maximum (in ClCCl) is recorded as 421 nm.

`c1ccc(N(c2ccccc2)c2ccc(-n3ccc4cc(-c5cccc6c5-c5ccccc5C6(c5ccccc5)c5ccccc5)ccc43)cc2)cc1` came in with an absorption maximum (in ClCCl) of 322 nm.

For `CC1(C)c2ccccc2N(c2cc(C#N)c(C#N)cc2N2c3ccccc3C(C)(C)c3ccccc32)c2ccccc21`, where the note is “in c1ccc2c(c1)c1ccccc1n2-c1ccc(-c2ccc(-n3c4ccccc4c4ccccc43)cc2)cc1”, the absorption maximum turned out to be 494 nm.

Take `O=C1c2ccccc2-c2c(-c3ccccc3O)[nH]c(=O)n21`: the absorption maximum was 393 nm (in CC#N), 396 nm (in CO) and 394 nm (in ClCCl).

On to `Clc1ccc(-c2nc3ccccc3n2-c2ccccc2)cc1`, for which the absorption maximum (in CC#N) worked out at 295 nm.

For `CN(C)c1ccc(/C=C/c2nc3ccc(Br)cc3nc2-c2ccccc2)cc1`, the absorption maximum is listed as 445 nm (in C1COCCO1), 448 nm (in CC#N) and 453 nm (in ClCCl).

Where the note is “in ClC(Cl)Cl”, `CC1=CC(C)=[N+]2C1=C(c1ccc(I)cc1)c1c(C)cc(C)n1[B-]2(OCc1ccccc1)OCc1ccccc1` had an absorption maximum of 506 nm.

Regarding `CN(C)c1ccc(-c2cc3c(ccc4c([N+](=O)[O-])cccc43)c(=O)o2)cc1`, the absorption maximum is on record as 435 nm (in CCOC(C)=O) and 439 nm (in CO).

As for `C(#Cc1ccc2ncsc2c1)c1ccc(N(c2ccccc2)c2ccccc2)cc1`, where the note is “in Cc1ccccc1”, the absorption maximum came out at 365 nm.

As for `CN(C)c1cc2c(cc1F)c(=O)c1cc(F)c(N)cc1n2C`, the absorption maximum (in CCO) was 369 nm.

In the case of `Cc1ccc(C)n1-c1ccc(N(C)C)cc1`, the absorption maximum (in CC#N) is listed as 306 nm and the absorption maximum (in CCCCCC) is 304 nm.

`O=C1c2cc(-c3ccccc3)ccc2-c2ccc(-c3ccccc3)cc21` had an absorption maximum (in C1CCOC1) of 337 nm.

As for `CC(C)(C)c1ccc(C#Cc2cc3ccc4cc(C#Cc5ccc(C(C)(C)C)cc5)cc5ccc(c2)c3c45)cc1`, the absorption maximum (in ClCCl) is reported as 410 nm.

As to `COc1ccc(-c2cc3c(s2)c(C(=O)c2ccccc2)cc(=O)n3Cc2ccccc2)cc1`, the absorption maximum by setting is: (in CC#N) 406 nm; (in ClCCl) 416 nm.

In the case of `COc1ccc(-c2cnc3cccc(-c4ccc(C(C)=O)cc4)n23)cc1`, the absorption maximum (in ClCCl) is on record as 366 nm.

With `CCCCc1cc2c3c(c1)-c1ccccc1B(c1c(C)cc(C)cc1C)N3B(c1c(C)cc(C)cc1C)c1ccccc1-2`, the absorption maximum (in ClCCl) is recorded as 366 nm.

Take `Oc1ccc2ccccc2c1-c1nc(-c2ccccc2)c2ccccn12`: the absorption maximum reads like this: (in C1CCCCC1) 361 nm; (in CC#N) 355 nm; (in CO) 343 nm; (in ClCCl) 362 nm; (in O) 355 nm.

`CC(C)c1cc(C(C)C)c(B2c3ccccc3Oc3cc(N4c5ccccc5C(C)(C)c5ccccc54)ccc32)c(C(C)C)c1` gave an absorption maximum (in Cc1ccccc1) of 436 nm.

As to `COc1ccc(-n2cccc2)cc1`, the absorption maximum reads like this: (in CC#N) 252 nm; (in CCCCCC) 252 nm.

Compound `CCC1=C(C)C2=C(C)c3c(C)c(-c4csc(N5CCOCC5)n4)c(C)n3[B-](F)(F)[N+]2=C1C` yielded an absorption maximum (in C1CCOC1) of 524 nm; an absorption maximum (in C1COCCO1) of 524 nm; an absorption maximum (in CC#N) of 516 nm; an absorption maximum (in CC(C)O) of 518 nm; an absorption maximum (in CCO) of 516 nm; an absorption maximum (in CCOC(C)=O) of 520 nm. The absorption maximum (in CN(C)C=O) came to 524 nm; the absorption maximum (in CO) came out at 514 nm; the absorption maximum (in CS(C)=O) is 521 nm; the absorption maximum (in Cc1ccccc1) is recorded as 527 nm; the absorption maximum (in ClC(Cl)Cl) stood at 523 nm; the absorption maximum (in ClCCl) came out at 522 nm.

As to `CC(=O)Nc1cc2ccc3cccc4ccc(c1)c2c34`, the absorption maximum runs as follows: (in CC#N) 334 nm; (in CCCCOCCCC) 336 nm; (in CO) 334 nm.

Regarding `C(#Cc1ccc(C#Cc2ccccc2)cc1)c1ccccc1`, the absorption maximum (in ClC(Cl)Cl) is on record as 328 nm.

`CCN(CC)c1ccc(/C=C/C(=O)c2c(O)cc(C)oc2=O)cc1` came in with an absorption maximum (in CC#N) of 476 nm; an absorption maximum (in CCCO) of 468 nm; an absorption maximum (in CCO) of 488 nm; an absorption maximum (in CCOC(C)=O) of 472 nm; an absorption maximum (in Cc1ccccc1) of 471 nm; an absorption maximum (in ClCCl) of 480 nm.

For the compound `N#Cc1c(N2CCCCC2)cc(-c2ccc3ccc4cccc5ccc2c3c45)c2c1-c1ccccc1C2`, under “in C1CCOC1”, the absorption maximum is listed as 346 nm.

Take `O=C(O)c1ccccc1-c1nc(-c2ccccc2)c2ccccn12`: the absorption maximum (in CC#N) was 357 nm.

Take `CCCCCCN1C(=O)c2cccc3c(-c4ccc(-c5ccc6c7c(cccc57)C(=O)N(CCCCCC)C6=O)s4)ccc(c23)C1=O`: the absorption maximum (in ClC(Cl)Cl) amounted to 395 nm.

Compound `CCN(C)c1ccc(C2=C3C(C)=CC(/C=C/c4ccc(OCCCN=[N+]=[N-])cc4)=[N+]3[B-](F)(F)n3c(C)cc(C)c32)cc1` came in with an absorption maximum (in CO) of 568 nm.

Consider `CC(C)[Si]1(C(C)C)c2cc(C#N)ccc2-c2ccc(N(c3ccccc3)c3ccccc3)cc21`, for which the absorption maximum runs as follows: (in C1CCCCC1) 391 nm; (in CC#N) 381 nm; (in CCO) 385 nm; (in CCOCC) 383 nm; (in CS(C)=O) 387 nm; (in ClCCl) 388 nm. The absorption maximum (in c1ccccc1) was determined as 389 nm.

The compound `Cc1cccc2nc3c(=O)n(C)c(=O)nc-3n(C)c12` gave an absorption maximum (in CC#N) of 439 nm.

Compound `C[Si](C)(C)C#Cc1c2c(=O)c3ccccc3c2c(C#C[Si](C)(C)C)c2c(=O)c3ccccc3c12` registered an absorption maximum (in ClC(Cl)Cl) of 524 nm.

For the setting “in CC#N”, `CC(=O)OC[C@H]1O[C@@H](OCC#Cc2ccc(C3=C4C(C)=CC(/C=C/c5ccc([N+](C)(C)C)cc5)=[N+]4[B-](F)(F)n4c(/C=C/c5ccc([N+](C)(C)C)cc5)cc(C)c43)cc2)[C@H](OC(C)=O)C(OC(C)=O)[C@@H]1OC(C)=O` (some centres undefined) registered an absorption maximum of 618 nm.

Consider `CN(C)c1ccc(/C=C/C=C/c2ccc(C#N)cc2)cc1`, for which the absorption maximum is, setting by setting: (in CC#N) 402 nm; (in CCCC#N) 410 nm; (in CCCCCC) 400 nm; (in CCOCC) 400 nm.

In turn, `N#Cc1c(-n2c3ccccc3c3cc(Br)ccc32)c(-n2c3ccccc3c3cc(Br)ccc32)c(C#N)c(-n2c3ccccc3c3cc(Br)ccc32)c1-n1c2ccccc2c2cc(Br)ccc21` showed an absorption maximum (in Cc1ccccc1) of 337 nm.

As to `Nc1ccc(C#Cc2ccc3ccc4ccc(C#Cc5ccc(NS(=O)(=O)c6ccc([N+](=O)[O-])cc6[N+](=O)[O-])cc5)c5ccc2c3c45)cc1`, the absorption maximum (in CO) was determined as 406 nm.

For `CCOC(=O)C1=C(N)n2c(=O)c3ccccc3c(=O)n2C1c1cccs1` (centres undefined), the absorption maximum (in CS(C)=O) is on record as 365 nm.

For the origin of these results see the Deep4Chem optical property database.
